Test results: paper PMC11609934, “Exploration and characterization of the antimalarial activity of cyclopropyl carboxamides that target the mitochondrial protein, cytochrome b” (European Journal of Medicinal Chemistry, 2024)
In brackets after ≈: the same amount, converted by molar mass. Where two headings read alike, the source gives them in different places.

Legend:
[1] = test system: P. falciparum 3D7 parasites; experiment: P. falciparum 3D7 asexual stage LDH assay (72 h); assay type: cell-based, Plasmodium falciparum; conditions: Plasmodium falciparum, read-out: Pf 3D7 EC50 (SD)
Summary of the method: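 Asexual P. falciparum 3D7 parasites were grown for 72 h over a 10-point, 3-fold series starting at 1 μM in 0.1% DMSO, with 100 nM chloroquine as negative growth control. After freeze-thaw, parasite LDH was read at 650 nm, and EC50 came from a variable-slope sigmoidal fit.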

Pf Dd2 parental line = conditions: known drug controls; ref Nguyen, Dans et al. [8]; cited from earlier work
[2] = test system: ring-stage P. falciparum parasites; experiment: Asexual stage of arrest assay; assay type: cell-based, Plasmodium falciparum; conditions: 10 times EC50, sampled every 12 h for 48 h
Description: Characterization of asexual stage phenotype and rate of asexual kill is important in determining the downstream application and TCP of an antimalarial series. […] Parasites were sampled every 12 h for 48 h, to prepare Giemsa-stained blood smears for analysis by microscopy. Parasitemia of each sample was measured by flow cytometry using SYBR-Green DNA staining.
Asexual Stage of Arrest Assay. This assay was conducted as previously described.

[3] = test system: W499-resistant populations; experiment: microbe, parasite or virus in culture; assay type: cell-based, Plasmodium falciparum; conditions: for EC50: Plasmodium falciparum
Excerpt: (§1) To confirm if W466 (1) and W499 (2) may have the same molecular target, W466 (1) and W499 (2) were each evaluated for cross resistance against their respective resistant populations from the pulsed forward genetic study (Fig. 2).

[4] = test system: Pf Dd2 expressing ScDHODH; parameters: method as in Nguyen, Dans et al. [8]; conditions: known drug controls; ref Nguyen, Dans et al. [8]; cited from earlier work
Pf SB1-A6 strain = test system: Pf SB1-A6 strain; parameters: method as in Nguyen, Dans et al. [8]; conditions: known drug controls; ref Nguyen, Dans et al. [8]; cited from earlier work
[5] = test system: W466-resistant populations; experiment: 72 h growth assay against W466-resistant populations; assay type: cell-based, Plasmodium falciparum; conditions: Plasmodium falciparum
Excerpt: To determine the mechanism of action of the cyclopropyl carboxamide series, a forward genetic resistance study was undertaken on the two hit compounds W466 (1) and W499 (2).
as §1, with “The structures of W466 (1) and W499 (2) are slightly different although they appear to belong to the same structural class. To” for “To”

mitochondrial ETC = experiment: P. falciparum oxygen consumption rate (OCR) assay (Seahorse XFe96); assay type: cell-based, Plasmodium falciparum; conditions: compounds 5 μM
Description: To provide further evidence to support the cyclopropyl carboxamide series targeting cyt b, an oxygen consumption rate (OCR) assay was performed using a Seahorse XFe96 Flux Analyzer. The primary role of the mitochondria ETC is to produce ATP oxidative phosphorylation, and thus the oxygen consumption directly quantifies mitochondrial ETC activity. In this assay, malate, which is a substrate of malate quinone dehydrogenase (MQD), was added to provide a base line of oxygen consumption at approximately 50 pmol/min (Fig. 4). […] Finally, NaN3 was added to inhibit complex IV to bring the OCR back to basal levels.
Fig. 4 P. falciparum oxygen consumption rate (OCR) assay. Data represent the means and SDs of 3 technical replicates. Time points and reagent injections were as follows, 1. First 5 timepoints measured the basal level of malate-dependent OCR; 2. Compounds (5 μM) were injected independently (indicated by arrow), and OCR measured for 8-timepoints; 3. TMPD (a cytochrome c electron donor) was injected, and OCR measured for 5 time points; 4. NaN3 (a complex IV inhibitor) was then added, and OCR measured for 5 time points.
ETC Biosensor Assay. This assay was performed as previously described. Briefly, 3 × 10^8 trophozoite infected RBCs were purified using the SuperMACS II separator (Miltenyi Biotec, Germany). The trophozoite-stage parasites were released from erythrocytes by treating them with 0.05 % (w/v) pre-warmed saponin in phosphate-buffered saline (PBS) at 37 °C for 3 min. The cells were washed with pre-warmed PBS, three times. […] The cells were measured for oxygen consumption rate (OCR) using Seahorse XFe96 flux analyzer (Agilent). The OCR was assessed for five cycles of 20 s mixing, 1 min waiting, 2.5 min measuring to establish baseline OCR before any substrate injections, for eight cycles of 20 s mixing, 1 min waiting followed by 2.5 min measuring after inhibitor injection from port A and for five cycles of 20 s mixing 1 min waiting, 2.5 min measuring after TMPD, and NaN3, injections.

[6] = Human HepG2 growth inhibition assay (Cell TitreGlo, 48 h); assay type: cell-based; conditions: human, HepG2 cells, HepG2 cell growth inhibition over 48 h
Summary of the method: (§2)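 HepG2 cells (1000/well, DMEM + 10% FCS) exposed 48 h at 37 °C, 5% CO2 to compound from 50 μM top concentration in 1:2 dilutions, 0.5% DMSO final. Viability read by Cell Titer Glo, normalised to DMSO and 10 μM bortezomib; EC50 by four-parameter variable-slope fit.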

Rat hepatocyte stability = assay type: in vitro ADME; conditions: pooled rat hepatocytes
Description: Rat Hepatocyte Stability. A solution of the test compound in Krebs-Henseliet buffer solution (1 μM) was incubated in pooled rat hepatocytes (1 × 10^6 cells/mL) for 0, 15,30,45, 60, 75 and 90 min at 37 °C (5 % CO2, 95 % relative humidity). The reaction was terminated with the addition of ice-cold acetonitrile containing system suitability standard at designated time points. […] The experiment was carried out in duplicate. Diltiazem, 7-ethoxy coumarin, propranolol, and midazolam were used as reference standards.

[7] = Human liver microsome stability; assay type: in vitro ADME; conditions: pooled human liver microsomes
Description: Human Liver Microsome Stability. A solution of the test compounds in phosphate buffer solution (1 μM) was incubated in pooled human liver microsomes (0.5 mg/mL) for 0, 5, 20, 30, 45 and 60 min at 37 °C in the presence and absence of NADPH regeneration system. The reaction was terminated with the addition of ice-cold acetonitrile containing system suitability standard at designated time points. […] The experiment was carried out in duplicate. Verapamil, diltiazem, phenacetin, and imipramine were used as reference standards.

[8] = eLogD (shake-flask, pH 7.4); assay type: physicochemical; conditions: 1-octanol/phosphate buffered saline (1:1, v/v), Shake-flask method
Description: eLogD. The LogD (pH 7.4) assay was performed using a miniaturized shake flask method. A solution of a pre-saturated mixture of 1-octanol and phosphate buffered saline (PBS) (1:1, v/v) and the test compound (75 μM) was incubated at 25 °C with constant shaking (850 rpm) for 2 h. After incubation the organic and aqueous phases were separated, and samples of each phase transferred to plate for dilution. The organic phase was diluted to 1000-fold and the aqueous phase was diluted 20-fold. The samples were quantitated using LC-MS/MS. The experiment was carried out in duplicate. Propranolol, amitriptyline, and midazolam were used as reference standards.

[9] = Aqueous solubility (kinetic in PBS, pH 7.4); assay type: physicochemical; conditions: phosphate buffered saline
Description: Solubility. The solubility assay was performed using a miniaturized shake flask method. A solution of phosphate buffered saline (PBS) and the test compound (200 μM) was incubated at 25 °C with constant shaking (600 rpm) for 2 h. The samples were filtered using a multiscreen solubility filter plate. The filtrate was half diluted in acetonitrile. A five-point linearity curve was prepared in PBS:acetonitrile (1:1, v/v) at 200, 150, 75, 25 and 2.5 μM. Blank, linearity and test samples (n = 2) were transferred to a UV readable plate and the plate was scanned for absorbance. Best fit calibration curves were constructed using the calibration standards and used to determine the test sample solubility. The experiment was carried out in duplicate. Diethylstilbestrol, haloperidol, and diclofenac sodium were used as reference standards.

female gamete = experiment: Dual gamete formation assay, female gametes; assay type: cell-based; conditions: Plasmodium falciparum; NF54 parasites in a DGFA, 4 replicates
Description: (§3) To determine whether the cyclopropyl carboxamide class has transmission blocking potential we profiled selected analogs in a dual gamete formation assay. In this assay, stage V gametocytes are treated with compound, and gametogenesis is induced by the addition of xanthurenic acid. Male gamete viability is determined by an imaging algorithm measuring motile flagellation, while female viability is measured using an antibody to the female-specific Pfs25 surface marker. […] Collectively, the activity observed against male gametes is consistent with activity observed with other cyt b inhibitors.
(§4) Dual Gamete Formation Assay. Compounds were evaluated as previously described as a platform run at both Imperial College London and the London School of Hygiene and Tropical Medicine. Briefly, mature stage V gametocytes were exposed to compounds for 48 h at 37 °C in 384 well plates in gametocyte culture medium (RPMI 1640 supplemented with 25 mM HEPES, 50 μg/mL hypoxanthine, 4.8 g/L NaHCO3, 2 mM L-glutamine, 5 % pooled type AB serum, 0.5 % Albumax II (Gibco)) under a 1 % O2/3 % CO2/96 % N2 environment. Gametogenesis was then triggered by the addition of 10 μL ookinete medium (gametocyte culture medium supplemented with 100 μM xanthurenic acid and 0.27 μg/mL Cy3-labelled anti-Pfs25 antibody) to each well at room temperature. Plates were then cooled on a metal block at 4 °C for 4 min to ensure even cooling and then stabilized for a further 4 min at 28 °C. At 20 min post-induction, male gametogenesis was recorded in each well by automated brightfield microscopy using a × 4 objective lens and 1.5 × magnifier ( × 6 effective magnification). Afterward, plates were incubated in the dark at room temperature for 24 h and then female gametogenesis recorded in each well by automated fluorescence microscopy (anti-Pfs25-positive cells). […] All data was evaluated in comparison to the positive and negative controls to calculate percentage inhibition of male and female gametocytes, and dose response analysis and EC50 calculation performed using GraphPad Prism.

male gamete = experiment: Dual gamete formation assay, male gametes; assay type: cell-based; conditions: Plasmodium falciparum; NF54 parasites in a DGFA, 4 replicates
Description: as §3, §4

[10] = test system: Pf Dd2 strain with an I22L mutation in the Qi site cyt b; parameters: method as in Nguyen, Dans et al. [8]; conditions: known drug controls; ref Nguyen, Dans et al. [8]; read-out: Pf cyt b mutant strains EC50 Dd2 cyt b(I22L); cited from earlier work
[11] = test system: Pf 3D7 3-oxadiazole quinolone resistant strain with a V259L mutation in the Qo site of cyt b; parameters: method as in Nguyen, Dans et al. [8]; conditions: known drug controls; ref Nguyen, Dans et al. [8]; read-out: Pf cyt b mutant strains EC50 3D7 cyt b(V259L); cited from earlier work
human HepG2 cell line = experiment: Human HepG2 growth inhibition assay (Cell TitreGlo, 48 h); assay type: cell-based; conditions: HepG2 cell growth inhibition over 48 h
Summary of the method: as §2

[12] = 3D7 / DSM 265, parent 3D7 for resistant populations, LDH assay, 3 experiments (SYBR-green for DSM265)
[13] = DSM265, read-out: W499-resistant populations EC50 (SD) #2
[14] = DSM265, read-out: W499-resistant populations EC50 (SD) #3
[15] = read-out: W466-resistant populations EC50 (SD) #1
[16] = read-out: W466-resistant populations EC50 (SD) #2
[17] = read-out: W466-resistant populations EC50 (SD) #3

Compound | EC50 [1, 12] [nM] | EC50 (Pf Dd2 parental line) [nM] | EC50 [3, 13] [nM] | EC50 [3, 14] [nM] | EC50 [4] [nM] | EC50 (Pf SB1-A6 strain) [nM] | EC50 [5, 15] [nM] | EC50 [5, 16] [nM] | EC50 [5, 17] [nM] | effect on malate-dependent oxygen consumption rate (OCR) (mitochondrial ETC) | fold shift in EC50 against W499-resistant populations compared to wildtype 3D7 [3] [fold] | further results
O=C1C(O)=C([C@H]2CC[C@H](c3ccc(Cl)cc3)CC2)C(=O)c2ccccc21 [ATQ, atovaquone] | 1 | 1 | 4 | 3 | > 10000 | > 10000 | 2 | 1 | 1 | an OCR reduction was detected | – | asexual stage of arrest [2]: arrest at the trophozoite stage; EC50 ([5]; read-out: EC50 against W466-resistant parasites): 1 nM
CCCN(Cc1ccc(C(=O)NC2CC2)cc1)Cc1ccc(C(C)(C)C)cc1 [Compound 107, 4-(((4-(tert-Butyl)benzyl) (propyl)amino)methyl)-N-cyclopropylbenzamide] | – | – | – | – | – | – | – | – | – | – | – | CC50 at 48 h [6]: > 40000 nM; EC50 ([1]; 3D7, 72 h, LDH activity of P. falciparum 3D7 parasites over 72 h, means and SDs, three or more experiments): 20 nM; hepatocyte CLint at 1.5 h, 1 µM (Rat hepatocyte stability): 92 µL/min/1e6 cells; microsomal CLint at 1 h, 1 µM [7]: 263 µL/min/mg; logD at 2 h [8]: 4.9; solubility at 2 h [9]: 10 µM (≈ 3.79 µg/mL); EC50 (female gamete): 21600 nM; EC50 (male gamete): 80 nM
Cc1cc(Nc2ccc(S(F)(F)(F)(F)F)cc2)n2nc(C(C)(F)F)nc2n1 [DSM265] | 53 | 24 | > 1000 | > 1000 | > 10000 | > 10000 | 19 | 13 | 13 | didn't change the basal OCR | > 10 | EC50 ([3]; read-out: EC50 against W499-resistant parasites): > 1000 nM
COc1cc2[nH]c(C)c(-c3ccc(Oc4ccc(OC(F)(F)F)cc4)cc3)c(=O)c2cc1Cl [ELQ300] | 13 | 21 | 53 | 45 | – | – | 36 | 18 | 20 | – | 2 | EC50 [10]: 176 nM; EC50 [11]: 12 nM
N-Cyclopropyl-4-((cyclopropyl(3,4-dimethylbenzyl)amino)methyl)benzamide [Compound 79] | – | – | – | – | – | – | – | – | – | – | – | CC50 (human HepG2 cell line): > 40000 nM
